According to patent US20240287147A1, “PD-L1 BINDING PEPTIDES AND PEPTIDE COMPLEXES AND METHODS OF USE THEREOF” (Fred Hutchinson Cancer Center, priority 2020, published 2024):

Test system: PC3 tumors
Conditions: PC3, second cohort, T cells + 1 nmol or 0.1 nmol

**Q.** With durvalumab as the substance, how does the “effect on PC3 flank tumors” value read?
**A.** no effect
